Results published in ChEMBL document CHEMBL1201862, “PubChem BioAssay data set” (2004).
Activity calls are given as the source filed them.

Legend:
[1] = target: T1, Corticotropin-releasing factor receptor 2/Corticotropin-releasing factor-binding protein (Homo sapiens, UniProt P24387+Q13324); test: activators of CRF receptor 2 with binding protein – uHTS hits, confirmation (AID 602473); assay type: functional; conditions: read-out: EC50_Mean
T1 sequence (Q13324 whole entry): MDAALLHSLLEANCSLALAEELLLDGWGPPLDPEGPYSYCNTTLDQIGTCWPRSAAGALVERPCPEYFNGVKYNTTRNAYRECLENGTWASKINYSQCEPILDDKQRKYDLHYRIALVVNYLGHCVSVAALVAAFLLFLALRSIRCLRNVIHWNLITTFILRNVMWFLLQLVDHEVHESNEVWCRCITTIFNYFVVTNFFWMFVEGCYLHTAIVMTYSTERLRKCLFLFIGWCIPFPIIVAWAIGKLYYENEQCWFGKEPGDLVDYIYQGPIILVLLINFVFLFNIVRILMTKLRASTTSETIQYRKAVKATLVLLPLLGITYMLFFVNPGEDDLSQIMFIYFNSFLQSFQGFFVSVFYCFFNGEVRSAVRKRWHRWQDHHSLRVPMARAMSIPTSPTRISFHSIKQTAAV
T1 sequence (P24387 whole entry): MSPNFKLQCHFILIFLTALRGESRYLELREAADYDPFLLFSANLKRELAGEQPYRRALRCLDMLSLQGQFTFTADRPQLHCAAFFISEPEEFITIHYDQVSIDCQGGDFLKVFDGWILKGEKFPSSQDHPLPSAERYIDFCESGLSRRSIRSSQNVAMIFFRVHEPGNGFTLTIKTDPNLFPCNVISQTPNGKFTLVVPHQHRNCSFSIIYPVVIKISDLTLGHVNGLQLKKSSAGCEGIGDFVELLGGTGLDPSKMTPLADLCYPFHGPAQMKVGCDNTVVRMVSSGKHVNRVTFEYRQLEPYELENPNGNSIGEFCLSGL

[2] = target: T1, Corticotropin-releasing factor receptor 2/Corticotropin-releasing factor-binding protein; test: Dose Response confirmation of uHTS hits for small molecule antagonists of the CRF-binding protein and CRF-R2 receptor complex.; assay type: functional; conditions: read-out: IC50_Mean
[3] = blockers of CRF-binding protein–CRF-R2 complex – cell-based, uHTS hits, 384-well, dose response (AID 651639); assay type: functional, Homo sapiens; conditions: read-out: IC50_Mean
[4] = target: T2, Sentrin-specific protease 1 (Homo sapiens, UniProt Q9P0U3); test: Dose response confirmation of small molecule inhibitors of the catalytic domain of the SUMO protease, SENP1 in a FRET assay.; assay type: functional; conditions: read-out: IC50_Mean
T2 sequence (Q9P0U3 whole entry): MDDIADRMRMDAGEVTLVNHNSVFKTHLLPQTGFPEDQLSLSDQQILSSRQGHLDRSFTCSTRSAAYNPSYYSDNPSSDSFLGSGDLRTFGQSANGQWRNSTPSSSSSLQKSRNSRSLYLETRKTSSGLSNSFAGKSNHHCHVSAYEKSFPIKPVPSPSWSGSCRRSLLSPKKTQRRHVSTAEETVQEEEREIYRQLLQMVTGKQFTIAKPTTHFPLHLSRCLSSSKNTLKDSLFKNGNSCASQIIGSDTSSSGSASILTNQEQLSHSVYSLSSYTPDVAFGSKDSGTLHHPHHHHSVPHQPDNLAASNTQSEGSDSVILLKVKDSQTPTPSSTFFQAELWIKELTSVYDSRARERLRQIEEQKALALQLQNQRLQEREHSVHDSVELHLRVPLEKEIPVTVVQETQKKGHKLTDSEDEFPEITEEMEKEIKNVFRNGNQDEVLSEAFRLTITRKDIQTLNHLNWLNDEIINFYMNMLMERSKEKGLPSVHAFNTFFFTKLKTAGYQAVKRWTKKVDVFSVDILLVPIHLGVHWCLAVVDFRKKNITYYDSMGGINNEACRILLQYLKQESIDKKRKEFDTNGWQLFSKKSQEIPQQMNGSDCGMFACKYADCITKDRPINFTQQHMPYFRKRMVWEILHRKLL

[5] = target: T2, Sentrin-specific protease 1; test: SENP1 catalytic domain blockers, concentration series – biochemical, kinetic FRET, dose response (AID 651697); assay type: functional; conditions: read-out: IC50_Mean
[6] = NIH3T3 cell viability loss – ATP luminescence, mouse fibroblasts, counter-screen, dose response (AID 2010); assay type: functional, cell-based;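 also: cells exposed to compound for about 90 hours before reading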
[7] = THP-1 cell cytotoxicity, dose response, cytotoxicity control for non-replicating M. tuberculosis project (AID 489025); assay type: functional
[8] = cytotoxicity toward MDA-MB-231 breast cancer cells – cell-based, CellTiter-Glo luminescence, cherry-pick, cytotoxicity control for RAD54 inhibitor project, dose response (AID 651692); assay type: functional
[9] = target: T3, DNA repair and recombination protein RAD54-like (Homo sapiens, UniProt Q92698); test: RAD54 Holliday junction migration blockers – biochemical, fluorescence, cherry-picked samples, dose series, confirmation (AID 651657); assay type: functional
T3 sequence (Q92698 whole entry): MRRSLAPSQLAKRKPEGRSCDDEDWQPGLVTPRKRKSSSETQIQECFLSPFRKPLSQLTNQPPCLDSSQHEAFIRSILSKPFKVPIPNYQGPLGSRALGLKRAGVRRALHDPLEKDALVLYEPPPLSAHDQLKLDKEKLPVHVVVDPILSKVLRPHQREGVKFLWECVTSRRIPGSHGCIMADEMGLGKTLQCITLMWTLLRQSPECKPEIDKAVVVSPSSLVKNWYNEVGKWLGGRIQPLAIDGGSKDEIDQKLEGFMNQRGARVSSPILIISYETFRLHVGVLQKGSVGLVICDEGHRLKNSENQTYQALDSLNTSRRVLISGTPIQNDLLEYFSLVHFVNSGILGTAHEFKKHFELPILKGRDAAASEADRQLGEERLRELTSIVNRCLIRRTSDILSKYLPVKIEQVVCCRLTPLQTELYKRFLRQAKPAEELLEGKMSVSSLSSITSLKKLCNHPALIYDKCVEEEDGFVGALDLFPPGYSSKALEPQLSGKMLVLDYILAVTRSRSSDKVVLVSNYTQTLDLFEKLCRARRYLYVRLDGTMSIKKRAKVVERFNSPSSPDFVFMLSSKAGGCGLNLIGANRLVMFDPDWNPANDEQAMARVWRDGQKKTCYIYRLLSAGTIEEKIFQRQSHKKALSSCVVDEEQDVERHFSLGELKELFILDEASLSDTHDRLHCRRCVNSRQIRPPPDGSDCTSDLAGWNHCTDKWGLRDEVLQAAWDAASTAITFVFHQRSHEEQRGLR

[10] = Trypanosoma cruzi growth suppression in host cells – NIH3T3 host cells, beta-gal luminescence, confirmation (AID 2044); assay type: functional, cell-based;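 also: intracellular parasites grown in NIH/3T3 mouse fibroblasts as host cells; luminescent beta-galactosidase reporter signal from transgenic T. cruzi replicating inside host cells; inhibitors lower the luminescence signal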
[11] = target: T4, Short transient receptor potential channel 4 (Mus musculus, UniProt Q9QUQ5); test: block of DAMGO-driven TRPC4 calcium entry – cell-based, HEK293 TRPC4/mu-opioid, Fluo-4 calcium, dose response (AID 434942); assay type: functional;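 also: potency of inhibitors blocking the TRPC4 calcium response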
T4 sequence (Q9QUQ5 whole entry): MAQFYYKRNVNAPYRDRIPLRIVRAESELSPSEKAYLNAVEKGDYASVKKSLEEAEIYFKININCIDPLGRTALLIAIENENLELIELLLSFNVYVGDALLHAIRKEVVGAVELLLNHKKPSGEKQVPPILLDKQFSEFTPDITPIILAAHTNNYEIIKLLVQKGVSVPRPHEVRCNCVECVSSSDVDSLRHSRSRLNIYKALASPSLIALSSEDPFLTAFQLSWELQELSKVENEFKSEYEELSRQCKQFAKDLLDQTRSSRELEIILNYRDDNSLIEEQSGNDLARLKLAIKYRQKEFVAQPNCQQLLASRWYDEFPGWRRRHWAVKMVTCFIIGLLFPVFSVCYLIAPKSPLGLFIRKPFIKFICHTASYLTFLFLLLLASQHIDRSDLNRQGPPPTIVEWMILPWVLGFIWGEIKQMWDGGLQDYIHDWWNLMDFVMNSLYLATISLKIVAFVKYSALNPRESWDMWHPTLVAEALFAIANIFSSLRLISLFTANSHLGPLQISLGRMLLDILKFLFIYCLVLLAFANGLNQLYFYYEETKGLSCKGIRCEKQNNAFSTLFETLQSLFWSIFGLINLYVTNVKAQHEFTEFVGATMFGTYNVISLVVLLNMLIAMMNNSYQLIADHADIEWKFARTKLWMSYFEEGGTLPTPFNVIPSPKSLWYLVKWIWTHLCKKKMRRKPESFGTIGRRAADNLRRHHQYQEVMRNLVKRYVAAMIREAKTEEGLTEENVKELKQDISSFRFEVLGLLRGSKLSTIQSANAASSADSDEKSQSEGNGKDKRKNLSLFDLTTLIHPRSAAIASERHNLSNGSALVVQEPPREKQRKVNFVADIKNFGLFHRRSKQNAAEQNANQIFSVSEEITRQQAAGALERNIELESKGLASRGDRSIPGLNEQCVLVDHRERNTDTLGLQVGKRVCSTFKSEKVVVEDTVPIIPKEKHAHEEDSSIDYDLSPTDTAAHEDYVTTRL

[12] = luciferase reporter signal suppression in cells – H4 neuroglioma cells, luminescence, dose response (AID 1990); assay type: functional, cell-based
[13] = Luminescence Cell-Based Dose Response HTS to Identify Inhibitors of 5'UTR Stem-Loop Driven Prion Protein mRNA Translation in H4 Neuroglioblastoma Cells. [Related pubchem assays: 1827 (Project Summary), 1813 (Primary HTS)]; assay type: functional
HEK293 [14] = test: membrane integrity loss in HEK cells – cell-based, fluorescence, cytotoxicity control for IDE activator project, dose response (AID 588440); assay type: functional; conditions: Homo sapiens;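 also: cytotoxicity by LDH release measuring loss of membrane integrity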
Insulin-degrading enzyme [15] = target: T5, Insulin-degrading enzyme (Homo sapiens, UniProt P14735); test: cellular IDE activation of Abeta substrate cleavage – fluorescence polarization, HEK cells, dose response (AID 588439); assay type: functional, cell-based
T5 sequence (P14735 whole entry): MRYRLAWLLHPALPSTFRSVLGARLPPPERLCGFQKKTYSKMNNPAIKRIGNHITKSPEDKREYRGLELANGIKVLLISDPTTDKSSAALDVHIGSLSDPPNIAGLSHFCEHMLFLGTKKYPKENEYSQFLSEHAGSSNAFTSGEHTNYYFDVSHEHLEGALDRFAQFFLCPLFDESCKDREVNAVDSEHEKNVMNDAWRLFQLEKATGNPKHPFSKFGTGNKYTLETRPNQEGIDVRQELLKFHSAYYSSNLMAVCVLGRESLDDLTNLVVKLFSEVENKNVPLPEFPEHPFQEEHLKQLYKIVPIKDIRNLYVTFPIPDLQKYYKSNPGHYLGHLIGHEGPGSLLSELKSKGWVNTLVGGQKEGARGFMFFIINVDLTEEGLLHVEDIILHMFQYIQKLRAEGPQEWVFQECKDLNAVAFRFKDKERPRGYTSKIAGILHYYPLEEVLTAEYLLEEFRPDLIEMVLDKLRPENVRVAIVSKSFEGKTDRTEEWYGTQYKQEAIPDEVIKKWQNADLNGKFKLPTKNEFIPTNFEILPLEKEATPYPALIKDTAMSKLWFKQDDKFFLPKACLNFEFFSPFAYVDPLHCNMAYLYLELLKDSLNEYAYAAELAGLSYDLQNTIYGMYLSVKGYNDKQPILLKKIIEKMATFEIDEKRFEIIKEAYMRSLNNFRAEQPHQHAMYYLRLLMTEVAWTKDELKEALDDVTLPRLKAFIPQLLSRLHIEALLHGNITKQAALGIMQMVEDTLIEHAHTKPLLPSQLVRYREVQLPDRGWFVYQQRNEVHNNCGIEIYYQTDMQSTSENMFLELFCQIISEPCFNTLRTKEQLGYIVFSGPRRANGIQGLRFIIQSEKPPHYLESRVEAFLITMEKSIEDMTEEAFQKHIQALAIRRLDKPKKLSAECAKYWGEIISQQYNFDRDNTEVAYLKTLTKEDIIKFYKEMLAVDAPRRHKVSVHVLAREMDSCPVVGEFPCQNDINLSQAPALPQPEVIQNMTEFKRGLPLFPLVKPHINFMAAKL

HEK293 [16] = test: optical interference in Abeta FP readout, dose response, artefact control for IDE activator project, biochemical, fluorescence polarization (AID 588442); assay type: functional, cell-based; conditions: Homo sapiens
[17] = alpha-synuclein stem-loop luciferase translation blockers – H4 neuroglioma cells, luminescence, confirmation (AID 1988); assay type: functional, cell-based
Insulin-degrading enzyme [18] = target: T5, Insulin-degrading enzyme; test: recombinant IDE activation, cell-free – biochemical, fluorescence polarization, counter-screen for IDE activator project, dose response (AID 588681)
[19] = target: T6, Probable nicotinate-nucleotide adenylyltransferase (Staphylococcus aureus (strain N315), UniProt P65502); assay type: functional, Staphylococcus aureus subsp. aureus N315;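 as to IC50 Mean: confirmatory dose-response retesting of NadD inhibitor hits first found in an ultra-high-throughput screen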
[20] = target: T6, Probable nicotinate-nucleotide adenylyltransferase; assay type: functional, Staphylococcus aureus subsp. aureus N315; conditions: read-out: IC50_Mean

T6 sequence (P65502 whole entry): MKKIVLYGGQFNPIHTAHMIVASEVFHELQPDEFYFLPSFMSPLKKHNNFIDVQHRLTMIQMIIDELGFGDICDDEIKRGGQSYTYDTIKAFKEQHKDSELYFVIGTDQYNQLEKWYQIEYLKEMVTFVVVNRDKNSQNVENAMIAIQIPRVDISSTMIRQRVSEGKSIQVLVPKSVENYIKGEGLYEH

In the case of `CCc1ccc(-c2cc(C)no2)cc1S(=O)(=O)Nc1ccc(Cl)cn1`, the EC50 [1] is reported as > 53 µM (inactive), the IC50 [2] is reported as 27.5 µM (active) and the IC50 [3] is reported as > 20 µM (inactive).
In the case of `CCOC(=O)c1c(O)nc2ccc(Cl)c3c2c1-c1ccccc1C3=O`, the IC50 [4] is reported as 2.75 µM (active) and the IC50 [5] is reported as 18.3 µM (active).
With `CCN(CC)CCSc1nnc2c3cc(C)ccc3n(Cc3ccccc3)c2n1` the EC50 [6] was > 60 µM (not active), the CC50 [7] was 26.1 µM (active) and the AC50 [8] was 30.6 µM (active). The AC50 [9] was 31.4 µM (active) and the EC50 [10] was 0.754 µM (active).
With `COc1ccc(/C=C2/SC(=S)N(CCCC(=O)Nc3ccccc3C(=O)O)C2=O)cc1` the EC50 [11] was 6.68 µM (active), the EC50 [12] was 11 µM (active) and the EC50 [13] was 11.2 µM (active). For the same compound, the IC50 (HEK293 [14]) was > 89.1 µM (inactive), the EC50 (Insulin-degrading enzyme [15]) was > 54.6 µM (inactive) and the EC50 (HEK293 [16]) was 58.7 µM (inactive). The EC50 [17] was 11.1 µM (active) and the EC50 (Insulin-degrading enzyme [18]) was > 54.6 µM (inactive).
In the case of `Cc1cc2[nH]c(=O)c(=O)[nH]c2cc1S(=O)(=O)N1CCN(c2cccc(C(F)(F)F)c2)CC1`, the IC50 [19] is reported as 9.57 µM (active) and the IC50 [20] is reported as 29.2 µM (active).
